The test system of this test is Fe65/App interaction. The test can be described thus: growth restoration test on solid medium, yRB49 (rY2H UI interference system) expressing the Fe65/App interaction. The class given is cell-based. The settings on record: medium free of histidine, 1 mM 3-AT; 1 μl at 0.125%, 0.25%, 0.5% or 1% at center of dish; 30° C., 48 hours. Here is the method:
The strain containing the UI transcriptional interference system (yRB49) and cotransformed with the plasmids pRB34 and pRB35 (Fe65/App interaction) was plated out onto medium without histidine and containing 1 mM of 3-AT. […] The dishes were incubated at 30° C. for 48 hours.
The strain containing the UI transcriptional interference system (yRB49) was cotransformed with the pairs of plasmids pRB34 and pRB35 (Fe65/App interaction) or pDBT-mdm2 and pVP16-p53Nt (mdm2/p53 interaction). The strain containing the plasmids pRB34 and pRB35 (Fe65/App interaction) was plated out onto 5 dishes of medium without histidine supplemented with 1 mM of 3-AT (top row); the strain containing the plasmids pDBT-mdm2 and pVP16-p53Nt (mdm2/p53 interaction) was similarly plated out onto 5 dishes of medium without histidine supplemented with 20 mM of 3-AT (bottom row).
A control dish was prepared for each interaction by depositing 1 μl of histidine at 0.125% w/v at the center of this dish. A different molecule, A, B, C or D, was deposited onto each of the other 4 dishes, according to the following scheme: in the upper left corner, 1 μl of the product at a concentration of 0.1 mM is deposited; in the upper right corner, 1 μl of the same product at a concentration of 1 mM is deposited; at the center, 1 μl of this product at 10 mM is deposited. […]

Structures are written as SMILES.

With `N[C@@H](Cc1c[nH]cn1)C(=O)O` [histidine], the “restoration of growth around the deposit by nutrient (FIG. 8C)” value was “capable of restoring the growth”.

The values are drawn from patent US20090005253A1, “Double Hybrid System Based on Gene Silencing by Transcriptional Interference” (AVENTIS PHARMA S.A., priority 2004, published 2009).
